How the values were obtained:
Format in all cases: functional
HOP-62 = test: Anticancer activity against Homo sapiens (human) HOP62 cells assessed as cell growth promotion at 10 uM after 48 hr by SRB assay
NCI-H23 = test: Anticancer activity against Homo sapiens (human) NCI-H23 cells assessed as cell growth promotion at 10 uM after 48 hr by SRB assay
NCI-H322M = test: Anticancer activity against Homo sapiens (human) NCI-H322M cells assessed as cell growth promotion at 10 uM after 48 hr by SRB assay
NCI/ADR-RES = test: Anticancer activity against Homo sapiens (human) NCI/ADR-RES cells assessed as cell growth promotion at 10 uM after 48 hr by SRB assay
SK-MEL-28 = test: Anticancer activity against Homo sapiens (human) SK-MEL-28 cells assessed as cell growth promotion at 10 uM after 48 hr by SRB assay
NCI-H226 = test: Anticancer activity against Homo sapiens (human) NCI-H226 cells assessed as cell growth promotion at 10 uM after 48 hr by SRB assay
COLO 205 = test: Anticancer activity against Homo sapiens (human) COLO205 cells assessed as cell growth promotion at 10 uM after 48 hr by SRB assay
786-0 = test: Anticancer activity against Homo sapiens (human) 786-0 cells assessed as cell growth promotion at 10 uM after 48 hr by SRB assay
RXF 393 = test: Anticancer activity against Homo sapiens (human) RXF393 cells assessed as cell growth promotion at 10 uM after 48 hr by SRB assay
MDA-MB-468 = test: Anticancer activity against Homo sapiens (human) MDA-MB-468 cells assessed as cell growth promotion at 10 uM after 48 hr by SRB assay
UACC-257 = test: Anticancer activity against Homo sapiens (human) UACC257 cells assessed as cell growth promotion at 10 uM after 48 hr by SRB assay
HOP-92 = test: Anticancer activity against Homo sapiens (human) HOP92 cells assessed as cell growth promotion at 10 uM after 48 hr by SRB assay
MDA-MB-435 = test: Anticancer activity against Homo sapiens (human) MDA-MB-435 cells assessed as cell growth promotion at 10 uM after 48 hr by SRB assay
BT-549 = test: Anticancer activity against Homo sapiens (human) BT549 cells assessed as cell growth promotion at 10 uM after 48 hr by SRB assay
SK-MEL-5 = test: Anticancer activity against Homo sapiens (human) SK-MEL-5 cells assessed as cell growth promotion at 10 uM after 48 hr by SRB assay
PC-3 = test: Anticancer activity against Homo sapiens (human) PC3 cells assessed as cell growth promotion at 10 uM after 48 hr by SRB assay
UO-31 = test: Anticancer activity against Homo sapiens (human) UO31 cells assessed as cell growth promotion at 10 uM after 48 hr by SRB assay
OVCAR-4 = test: Anticancer activity against Homo sapiens (human) OVCAR4 cells assessed as cell growth promotion at 10 uM after 48 hr by SRB assay

CCOC(=O)c1csc(NC(=O)CSc2nc(C)c(C)n2Nc2ccc(C)cc2)n1
Activity (HOP-62): 63.23%
Activity (NCI-H23): 74.71%
Activity (NCI-H322M): 97.18%
Activity (NCI/ADR-RES): 70.04%
Activity (SK-MEL-28): 80.17%
Activity (NCI-H226): 70.72%
Activity (COLO 205): 80.51%
Activity (786-0): 83.82%
Activity (RXF 393): 38.47%
Activity (MDA-MB-468): 67.17%
Activity (UACC-257): 88.46%
Activity (HOP-92): 44.51%
Activity (MDA-MB-435): 78.21%
Activity (BT-549): 91.44%
Activity (SK-MEL-5): 47.48%
Activity (PC-3): 88.3%
Activity (UO-31): 62.65%
Activity (OVCAR-4): 74.76%
